“And” between values parts separate entries of the source, which are not always exact repeats. Equal values may be shown once. Read-outs that look alike come from different tables or passages of the source. Values belong to the compound of their own block, whether it stands above or below them. Peptide text beside a SMILES is read from it.
How the values were obtained:
LIM 1215 cells [1] = system: LIM 1215 cells
Source text: The material was synthesized, using art recognized techniques, and was then used in a mitogenic assay on LIM 1215 cells, following Nice et al., J. Biol. Chem. 266: 14425-14430 (1991), which is incorporated by reference in its entirety.

colonic crypt cells = test: Growth factors together with LIM 2537 conditioned medium on colonic crypt cells (synergism); type: cell-based; conditions: tested on murine colonic crypt cells
Protocol: In another set of experiments, human colonic crypt cells were tested with conditioned medium from LIM 2537, together with different growth factors.

LIM 1215 cells [2] = test: Colony formation of LIM 1215 cells in semi-solid agar; type: cell-based, human; conditions: rhEGF 10 ng/ml alone
Protocol: Colony formation using various factors was studied. Cells of cell line LIM 1215 were cloned in semi-solid agar (0.3%) following Whitehead et al., Int. J. Canc. 46:858-863 (1990). Briefly, the cells were trypsinized and resuspended in RPMI 1640 plus 5% FCS. Cells in the suspension were counted and then resuspended in a mixture of 0.3% agar in RPMI 1640 plus 10% FCS (40° C.), at a concentration of 10^4 cells per ml. The mixture was plated in 1.5 volumes in 35 mm^2 dishes, and allowed to set. Plates were then incubated at 37° C. in 5% CO2 and 100% humidity for 14 days. A solution of 0.1% crystal violet was aded to the plates, and colonies of more than 40 cells were counted.
Conditioned medium was prepared by incubating confluent monolayers of colon carcinoma cell lines with fresh RPMI 1640 plus 5% FCS for 48 hours. Medium was then removed, sterilized by filtration, and added to the agar plates at a final concentration of 10% (v/v). […] See Whitehead, supra.
The effect of the POMC76-103, alone and combination with epidermal growth factor (EGF) was investigated. The peptide and recombinant human EGF ("rhEGF") were tested alone, and combined, in colony formation assays as described supra.

EC50 (LIM 1215 cells [1]): ~0.075 nM
Compound: CSCC[C@H](NC(=O)[C@@H](NC(=O)[C@H](Cc1ccc(O)cc1)NC(=O)[C@@H](N)CCCCN)C(C)C)C(=O)NCC(=O)N[C@@H](Cc1c[nH]cn1)C(=O)N[C@@H](Cc1ccccc1)C(=O)N[C@@H](CCCNC(=N)N)C(=O)N[C@@H](Cc1c[nH]c2ccccc12)C(=O)N[C@@H](CC(=O)O)C(=O)N[C@@H](CCCNC(=N)N)C(=O)N[C@@H](Cc1ccccc1)C(=O)NCC(=O)N[C@@H](CCCNC(=N)N)C(=O)N[C@@H](CCCNC(=N)N)C(=O)N[C@@H](CC(N)=O)C(=O)NCC(=O)N[C@@H](CO)C(=O)N[C@@H](CO)C(=O)N[C@@H](CO)C(=O)N[C@@H](CO)C(=O)NCC(=O)N[C@H](C(=O)NCC(=O)NCC(=O)N[C@@H](C)C(=O)N[C@@H](C)C(=O)N[C@@H](CCC(N)=O)C(=O)O)C(C)C [POMC76-103] (H-KYVMGHFRWDRFGRRNGSSSSGVGGAAQ-OH)

EC50 (LIM 1215 cells [1]; mitogenic assay, LIM 1215 cells): 0.05 nM
Compound: EGF: epidermal growth factor
stimulation index (LIM 1215 cells [1]; LIM 1215 cells, FIGS. 16A/16B): 8 fold | synergism with the LIM 2537 conditioned medium (colonic crypt cells): None of these factors showed any synergism

Compound: IL-6: interleukin 6
synergism with the LIM 2537 conditioned medium (colonic crypt cells): None of these factors showed any synergism

Compound: PDGF
synergism with the LIM 2537 conditioned medium (colonic crypt cells): None of these factors showed any synergism

Compound: rhEGF: recombinant human EGF
LIM 1215 Colony Stimulating Activity, Colonies (LIM 1215 cells [2]): 300 and 320

Source: patent US5547940A, “Method for stimulating proliferation of colon cells using POMC76-103” (Ludwig Institute for Cancer Research, priority 1994, dated 1996)
